{"source": "ChEMBL document CHEMBL1140623", "about": "“CC chemokine receptor-3 (CCR3) antagonists: improving the selectivity of DPC168 by reducing central ring lipophilicity” (Bioorg Med Chem Lett, 2007)", "key": {"in vivo [1]": {"test": "in vivo", "details": "chimpanzee"}, "in vivo [2]": {"test": "in vivo", "details": "chimpanzee", "remark": "listed apart in the source"}, "in vivo [3]": {"test": "in vivo", "details": "cynomolgus monkey"}, "in vivo [4]": {"test": "in vivo", "details": "cynomolgus monkey", "remark": "listed apart in the source"}, "in vivo [5]": {"test": "in vivo", "details": "BALB/c, mouse"}, "in vitro [6]": {"test": "in vitro", "details": "human, liver microsomes"}, "in vivo [7]": {"test": "in vivo", "details": "cynomolgus monkey", "remark": "listed apart in the source"}, "in vivo [8]": {"test": "in vivo", "details": "BALB/c, mouse", "remark": "listed apart in the source"}, "in vivo [9]": {"test": "in vivo", "details": "BALB/c, mouse", "remark": "listed apart in the source"}, "in vivo [10]": {"test": "in vivo", "details": "chimpanzee", "remark": "listed apart in the source"}, "in vitro [11]": {"test": "in vitro", "details": "human, Caco-2"}}}
{"compound": "CC(=O)c1sc(NC(=O)N[C@@H]2CN(C(C)=O)CC[C@H]2CN2CCC[C@@H](Cc3ccc(F)cc3)C2)nc1C", "values": [{"measurement": "bioavailability", "setting": "in vivo [1]", "value": 7, "unit": "%"}, {"measurement": "half-life", "setting": "in vivo [2]", "value": 4.5, "unit": "h"}, {"measurement": "half-life", "setting": "in vivo [3]", "value": 5.5, "unit": "h"}, {"measurement": "clearance", "setting": "in vivo [4]", "value": 14.5, "unit": "mL/min/kg"}, {"measurement": "bioavailability", "setting": "in vivo [5]", "value": 25, "unit": "%"}, {"measurement": "CLint scaled", "setting": "in vitro [6]", "value": 16, "unit": "mL/min/kg"}, {"measurement": "bioavailability", "setting": "in vivo [7]", "value": 18, "unit": "%"}, {"measurement": "half-life", "setting": "in vivo [8]", "value": 1.2, "unit": "h"}, {"measurement": "clearance", "setting": "in vivo [9]", "value": 41.7, "unit": "mL/min/kg"}, {"measurement": "clearance", "setting": "in vivo [10]", "value": 21.7, "unit": "mL/min/kg"}, {"measurement": "Papp", "setting": "in vitro [11]", "value": 2.8, "unit": "×10⁻⁶ cm/s"}]}
